Our source for the IC50 values is BindingDB's records for doi:10.3109/14756366.2013.765415 (Universidad de la República, 2014).

A word on the IC50: it is the concentration that gives 50% inhibition. A low value points to higher potency.

Experiment [1] addresses Triosephosphate isomerase (Homo sapiens, UniProt P60174). Nature of the experiment: Inhibition Assay. The note with it: pH 7.4; 37 °C. How it is done:
(§1) The reaction mixture (1 mL, pH 7.4) contained 100mM triethanolamine, 10mM EDTA, 0.2mM NADH, 1mM glyceraldehyde 3-phosphate (GAP) and 0.9 units of α-glycerol phosphate dehydrogenase (α-GPDH). The reaction was initiated by addition of 5 ng/mL of the corresponding TIM or the corresponding TIM pre-incubated with the studied compounds. In these cases, inhibition assays, the enzymes were pre-incubated for 2 h at 37 °C with the studied compounds.

Experiment [2] addresses Triosephosphate isomerase, glycosomal (Trypanosoma brucei brucei, UniProt P04789). In words: Inhibition Assay. The following applies: pH 7.4; 37 °C. The procedure: as §1

A value given as a limit tells only on which side of the number the result lay.

Triosephosphate isomerase, glycosomal, sequence (P04789 whole entry): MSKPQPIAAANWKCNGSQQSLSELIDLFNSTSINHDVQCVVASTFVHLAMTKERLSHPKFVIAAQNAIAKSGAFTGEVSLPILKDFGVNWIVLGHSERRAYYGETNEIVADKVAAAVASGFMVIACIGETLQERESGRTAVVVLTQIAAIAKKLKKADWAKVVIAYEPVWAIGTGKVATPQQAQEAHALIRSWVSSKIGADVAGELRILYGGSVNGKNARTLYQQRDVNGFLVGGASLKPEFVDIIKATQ

Turning to `Cc1ccc(-c2nsc(=O)[nH]2)cc1` [TIM inhibitor, 1], the 50% inhibitory concentration (IC50) in experiment [1] turned out to be 100 µM.
As for `O=C1C(=Cc2ccc([N+](=O)[O-])o2)C(=O)N(Cc2ccccc2)SN1Cc1ccccc1` [TIM inhibitor, 3], the IC50 in experiment [1] is greater than 100 µM; in experiment [2], 34 µM.
In experiment [1], `Oc1ccc2nc3cc(Cl)c(Cl)cc3nc2c1` [TIM inhibitor, 2] displayed an IC50 greater than 100 µM.
